According to patent US6696488B2, “(Hydroxyethyl)ureas as inhibitors of alzheimer's β-amyloid production” (The Brigham and Women's Hospital, Inc., priority 2000, dated 2004):

Legend:
[1] = tested on: total Aβ peptide production; test: Inhibition of total Aβ peptide production in APP-transfected cells, ELISA (Example 2); type: cell-based; conditions: 4 hours in culture, FIG. 1, read-out: concentration for 50 percent inhibition of total Aβ peptide production
Excerpt: (§1) Cell Lines, Compound Treatments, and ELISAs. Cell lines were Chinese hamster ovary (CHO) and SK-N-SH human neuroblastoma cells stably transfected with the 751- or 695-amino acid splicing variants of APP, respectively, and the neo gene, and human embryonic kidney (HEK) 293 cells carrying the same genes (APP695 plus neo) but with the K595N/M596L (“Swedish”) double mutation of APP. Xia W et al., J Biol Chem 272:7977-7982 (1997); Citron M et al., Proc Natl Acad Sci USA 93:13170-13175 (1996). Cells were grown to confluence in Dulbecco's modified Eagle's medium containing 200 μg/ml G418 (Gibco BRL). Stock concentrations of the (hydroxyethyl)urea compounds of the invention in DMSO were added to media to reach the final concentrations with 1% DMSO. Positive controls contained 1% DMSO alone. […] The reporter antibody was detected using 3,3′,5,5′-tetramethylbenzidine (Pierce), measuring at 455 nm for calculating Aβ levels and at 595 nm for normalization.
(§2) Compound III-20 (shown above) or compound III-24 (identical to III-20 except R4 is L-phenylalanine O-methyl ester) was added over a range of concentrations (0.1-100 μM) to APP-transfected cells in culture as described. […] After 4 hours in culture, supernatants from test and control cultures were assayed by ELISA specific for Aβ peptides, and results were analyzed as percent total or specific Aβ produced compared to control.

[2] = tested on: Aβ production in APP751-plus neo-transfected CHO cells; test: Inhibition of Aβ production in APP751-plus neo-transfected CHO cells, ELISA (Example 3); type: cell-based, Chinese hamster; conditions: Cricetulus griseus, 4 hours, 0.005 to 100 μM, 1% DMSO
Excerpt: Cell Lines, Compound Treatments, and ELISAs. Cell lines were Chinese hamster ovary (CHO) and SK-N-SH human neuroblastoma cells stably transfected with the 751- or 695-amino acid splicing variants of APP, respectively, and the neo gene, and human embryonic kidney (HEK) 293 cells carrying the same genes (APP695 plus neo) but with the K595N/M596L (“Swedish”) double mutation of APP. Xia W et al., J Biol Chem 272:7977-7982 (1997); Citron M et al., Proc Natl Acad Sci USA 93:13170-13175 (1996). Cells were grown to confluence in Dulbecco's modified Eagle's medium containing 200 μg/ml G418 (Gibco BRL). Stock concentrations of the (hydroxyethyl)urea compounds of the invention in DMSO were added to media to reach the final concentrations with 1% DMSO. Positive controls contained 1% DMSO alone. […] The reporter antibody was detected using 3,3′,5,5′-tetramethylbenzidine (Pierce), measuring at 455 nm for calculating Aβ levels and at 595 nm for normalization. […]
Transfected CHO cells were prepared and maintained as described in Example 2. […] Results were plotted as percent control Aβ produced versus (hydroxyethyl)urea compound concentration (μM), and (hydroxyethyl)urea compound concentrations at which production was inhibited by 50 percent (IC50) were determined.

Aβ42 production = test: Inhibition of Aβ42 production in APP-transfected cells, ELISA (Example 2); type: cell-based; conditions: 4 hours, compared with total Aβ, FIG. 2
Excerpt: as §1, §2

- IC50 [1]: ~1000 nM
SMILES: COC(=O)[C@H](CC(C)C)NC(=O)[C@H](CC(C)C)NC(=O)N(Cc1ccccc1)C[C@@H](O)[C@H](Cc1ccccc1)NC(=O)OC(C)(C)C [FΨFLL]
- IC50 [2]: 500 nM
- inhibitory effect on the production of Aβ42 (Aβ42 production): closely followed the inhibition by compound III-20 of total Aβ production
